These results are taken from ChEMBL document CHEMBL5113512, “β-Nitrostyrene derivatives as broad range potential antifungal agents targeting fungal cell wall” (2022).

Assay [1] deals with Candida albicans. The assay can be described thus: Inhibition of drug efflux in Candida albicans ATCC 24433 overexpressing AD(1-8)u- assessed as […] in nile red efflux incubated for 30 mins by flow cytometry. The class given is functional.
In assay [2] the test system is Candida albicans. The assay can be described thus: Antifungal activity against Candida albicans ATCC 24433 assessed as inhibition of fungal growth by broth microdilution method. It is filed as functional. (In broth dilution the organism is exposed to a series of concentrations in liquid medium.)
A further assay relates to Candida parapsilosis. Nature of the assay: Antifungal activity against Candida parapsilosis ATCC 90018 assessed as inhibition of fungal growth by broth microdilution method. The class given is functional. Conditions: Lodderomyces parapsilosis.
The test system of a further assay is Nakaseomyces glabratus. Nature of the assay: Antifungal activity against Candida glabrata ATCC 2001 assessed as inhibition of fungal growth by broth microdilution method. It is filed as functional.
For another assay, the system named is Candida tropicalis. The assay can be described thus: Antifungal activity against Candida tropicalis ATCC 750 assessed as inhibition of fungal growth by broth microdilution method. It is filed as functional.
Assay [3] deals with [Candida] auris. The assay can be described thus: Antifungal activity against Candida auris 102 assessed as inhibition of fungal growth by broth microdilution method. The class given is functional. Conditions: Candidozyma auris.
Assay [4] has as its system [Candida] auris. Nature of the assay: Antifungal activity against Candida auris 105 assessed as inhibition of fungal growth by broth microdilution method. As to conditions: Candidozyma auris. It is filed as functional.
The subject of assay [5] is [Candida] auris. The assay can be described thus: Antifungal activity against Candida auris 118 assessed as inhibition of fungal growth by broth microdilution method. It is filed as functional. Conditions: Candidozyma auris.
For assay [6], the system named is [Candida] auris. The assay can be described thus: Antifungal activity against wild type Candida auris 102 assessed as inhibition of fungal growth by broth microdilution method. The class given is functional. Conditions: Candidozyma auris.
For assay [7], the system named is Candida albicans. The assay can be described thus: Synergistic antifungal activity against Candida albicans ATCC 24433 assessed as fractional inhibitory concentration index incubated for 48 hrs in presence of caspofungin by checker board assay. The class given is functional.
The subject of assay [8] is Candida albicans. The assay can be described thus: Fungicidal activity against Candida albicans ATCC 24433 assessed as reduction in fungal growth by measuring reduction in colony count at sub-MIC concentration measured after 48 hrs by time kill assay. It is filed as functional, organism-based.
Assay [9] has as its system Cell membrane. Nature of the assay: Disruption of membrane integrity in Candida albicans ATCC 24433 assessed as cell deformation measured after 30 mins by SEM analysis. It is filed as subcellular.
For assay [10], the system named is Cell membrane. Nature of the assay: Disruption of membrane integrity in Candida albicans ATCC 24433 assessed as cell surface perturbations measured after 3 hrs by SEM analysis.
Assay [11] relates to Cell membrane. Nature of the assay: Disruption of membrane integrity in Candida auris CBS10913 assessed as cell surface perturbations measured after 3 hrs by SEM analysis. The class given is subcellular. Conditions: Candidozyma auris.
For assay [12], the system named is Cell membrane. Nature of the assay: Disruption of membrane integrity in Candida albicans ATCC 24433 assessed as cell shrinkage and lysis by measuring leakage of intracellular material measured after 6 hrs by SEM analysis. It is filed as subcellular.
The test system of assay [13] is Cell membrane. The assay can be described thus: Disruption of membrane integrity in Candida auris CBS10913 assessed as cell shrinkage and lysis by measuring leakage of intracellular material measured after 6 hrs by SEM analysis. Conditions: Candidozyma auris.
The test system of assay [14] is Candida albicans. The assay can be described thus: Induction of ROS generation in Candida albicans ATCC 24433 at sub-inhibitory concentration incubated for 1 hr by DCFDA staining-based flow cytometric analysis. The class given is functional, organism-based. On the technique in general: Flow cytometry measures light scatter and fluorescence of single cells or particles in a stream.

The subject of assay [15] is [Candida] auris. The assay can be described thus: Induction of ROS generation in Candida auris CBS10913 at sub-inhibitory concentration incubated for 1 hr by DCFDA staining-based flow cytometric analysis. It is filed as functional, organism-based. As to conditions: Candidozyma auris.
Assay [16] has as its system Candida albicans. The assay can be described thus: Induction of ROS generation in Candida albicans ATCC 24433 assessed as increase in relative fluorescence unit at sub-inhibitory concentration incubated for 1 hr by DCFDA staining-based flow cytometric analysis. It is filed as functional, organism-based.
In assay [17] the test system is [Candida] auris. The assay can be described thus: Induction of ROS generation in Candida auris CBS10913 assessed as increase in relative fluorescence unit at sub-inhibitory concentration incubated for 1 hr by DCFDA staining-based flow cytometric analysis. The class given is functional, organism-based. As to conditions: Candidozyma auris.
Assay [18] has as its system Candida albicans. The assay can be described thus: Antifungal activity against wild type Candida albicans SN152 assessed as inhibition of fungal growth by broth microdilution method. It is filed as functional.
In assay [19] the test system is Candida albicans. The assay can be described thus: Antifungal activity against Candida albicans SN152 harboring CAS5 mutant assessed as inhibition of fungal growth by broth microdilution method. It is filed as functional.
In assay [20] the test system is Candida albicans. Nature of the assay: Antifungal activity against Candida albicans ATCC 24433 overexpressing transporter protein GU4 assessed as inhibition of fungal growth by broth microdilution method. The class given is functional.
Assay [21] relates to Candida albicans. Nature of the assay: Antifungal activity against Candida albicans ATCC 24433 overexpressing transporter protein GU5 assessed as inhibition of fungal growth by broth microdilution method. The class given is functional.
For assay [22], the system named is Candida albicans. Nature of the assay: Antifungal activity against Candida albicans ATCC 24433 overexpressing transporter protein F2 assessed as inhibition of fungal growth by broth microdilution method. It is filed as functional.
In assay [23] the test system is Candida albicans. The assay can be described thus: Antifungal activity against Candida albicans ATCC 24433 overexpressing transporter protein F5 assessed as inhibition of fungal growth by broth microdilution method. It is filed as functional.
Assay [24] concerns Candida albicans. Nature of the assay: Antifungal activity against Candida albicans ATCC 24433 overexpressing ADCDR1-GFP assessed as inhibition of fungal growth by broth microdilution method. The class given is functional.
Assay [25] relates to Candida albicans. The assay can be described thus: Antifungal activity against Candida albicans ATCC 24433 overexpressing ADCaMDR1-GFP assessed as inhibition of fungal growth by broth microdilution method. The class given is functional.
Assay [26] has as its system Candida albicans. Nature of the assay: Antifungal activity against Candida albicans ATCC 24433 overexpressing ADPDR5-GFP assessed as inhibition of fungal growth by broth microdilution method. It is filed as functional.
The test system of assay [27] is Candida albicans. The assay can be described thus: Antifungal activity against Candida albicans ATCC 24433 overexpressing AD(1-8)u-assessed as inhibition of fungal growth by broth microdilution method. It is filed as functional.
Assay [28] concerns Candida albicans. Nature of the assay: Synergistic antifungal activity against Candida albicans ATCC 24433 overexpressing ADCDR1-GFP assessed as fractional inhibitory concentration index incubated for 48 hrs in presence of caspofungin by checker board assay. The class given is functional.
Assay [29] concerns Candida albicans. Nature of the assay: Synergistic antifungal activity against Candida albicans ATCC 24433 overexpressing ADCaMDR1-GFP assessed as fractional inhibitory concentration index incubated for 48 hrs in presence of caspofungin by checker board assay. The class given is functional.
The subject of assay [30] is Candida albicans. The assay can be described thus: Synergistic antifungal activity against Candida albicans ATCC 24433 overexpressing ADPDR5-G assessed as fractional inhibitory concentration index incubated for 48 hrs in presence of caspofungin by checker board assay. The class given is functional.
Assay [31] relates to Candida albicans. Nature of the assay: Inhibition of drug efflux in Candida albicans ATCC 24433 overexpressing ADCDR1-GFP assessed as reduction in rhodamine 6g efflux preincubated for 45 mins followed by substrate addition and measured after 30 mins. It is filed as functional. Conditions: dose 0.1-100 µg/ml, time 75.0 min, DDE = dose-dependent effect.
Assay [32] relates to Candida albicans. The assay can be described thus: Inhibition of drug efflux in Candida albicans ATCC 24433 overexpressing ADPDR5-GFP assessed as reduction in rhodamine 6g efflux preincubated for 45 mins followed by substrate addition and measured after 30 mins. The class given is functional. As to conditions: dose 0.1-100 µg/ml, time 75.0 min, DDE = dose-dependent effect.

The test system of assay [33] is Candida albicans. Nature of the assay: Inhibition of drug efflux in Candida albicans ATCC 24433 overexpressing ADCaMDR1-GF assessed as […] in nile red efflux incubated for 30 mins by flow cytometry. It is filed as functional.
Assay [34] deals with Candida. The assay can be described thus: Downregulation of CDC42 gene expression in Candida cells. The class given is functional, cell-based.
Assay [35] concerns Candida. Nature of the assay: Downregulation of CDC15 gene expression in Candida cells. It is filed as functional, cell-based.
Assay [36] has as its system Candida. Nature of the assay: Downregulation of CDC4 gene expression in Candida cells. It is filed as functional, cell-based.
Assay [37] deals with Candida. The assay can be described thus: Downregulation of GUT1 gene expression in Candida cells. It is filed as functional, cell-based.
The subject of assay [38] is Candida. Nature of the assay: Downregulation of STT4 gene expression in Candida cells. It is filed as functional, cell-based.

The MIC80 is an inhibitory concentration at the 80% level, which refers to growth in some studies and to a panel of isolates in others.

Converted amounts (≈) assume the structure as drawn. The source made the active and inactive calls. The calls are words filed in the database; no cut-off is given here. Bounds are passed on as bounds.

Consider `CC/C(=C\c1ccc(OC)cc1)[N+](=O)[O-]`, for which the inhibition result with Candida albicans [1] and in the assay on Candida albicans [33] was “Active” in each case. Besides, the MIC80 was found to be 4 µg/mL (≈ 19.3 µM) in the assay with Candida albicans [2]; 8 µg/mL (≈ 38.6 µM) in the assay with Candida parapsilosis; 4 µg/mL (≈ 19.3 µM) in the assay on Nakaseomyces glabratus; 2 µg/mL (≈ 9.65 µM) in the assay on Candida tropicalis; 4 µg/mL (≈ 19.3 µM) in [Candida] auris [3]; 2 µg/mL (≈ 9.65 µM) in [Candida] auris [4]. For the same molecule, the MIC80 worked out at 4 µg/mL (≈ 19.3 µM) in assay [Candida] auris [5]; 2 µg/mL (≈ 9.65 µM) in assay [Candida] auris [6]; 8 µg/mL (≈ 38.6 µM) with Candida albicans [18]; 2 µg/mL (≈ 9.65 µM) in the assay with Candida albicans [19]; 4 µg/mL (≈ 19.3 µM) in the assay with Candida albicans [20]; 4 µg/mL (≈ 19.3 µM) with Candida albicans [21]. Moreover, the MIC80 in the assay with Candida albicans [22] worked out at 2 µg/mL (≈ 9.65 µM); with Candida albicans [23], 2 µg/mL (≈ 9.65 µM); with Candida albicans [24], 4 µg/mL (≈ 19.3 µM); in the assay on Candida albicans [25] it was 2 µg/mL (≈ 9.65 µM); in the assay on Candida albicans [26], 2 µg/mL (≈ 9.65 µM); in the assay on Candida albicans [27], 4 µg/mL (≈ 19.3 µM). Moreover, the “fractional inhibitory concentration index (FICI)” value is recorded as less than 2.5 with Candida albicans [7], less than 0.5 with Candida albicans [28], less than 0.5 in the assay with Candida albicans [29] and less than 0.5 in the assay on Candida albicans [30]. Further, the result in the assay with Candida albicans [8], with Cell membrane [9], with Cell membrane [10], in the assay on Cell membrane [11], with Cell membrane [12] and with Cell membrane [13] was Active. The result (with Candida albicans [14]; in [Candida] auris [15]; in the assay on Candida albicans [16]; in assay [Candida] auris [17]) was Active. For the same molecule, the inhibition entry in the assay with Candida albicans [31] and in the assay on Candida albicans [32] was “Dde” each time.
With `CC[C@H](C)C[C@H](C)CCCCCCCCC(=O)N[C@H]1C[C@@H](O)[C@@H](NCCN)NC(=O)[C@@H]2[C@@H](O)CCN2C(=O)[C@H]([C@H](O)CCN)NC(=O)[C@H]([C@H](O)[C@@H](O)c2ccc(O)cc2)NC(=O)[C@@H]2C[C@@H](O)CN2C(=O)[C@H]([C@@H](C)O)NC1=O` [CASPOFUNGIN], the outcome in the assay with Candida [34], with Candida [35], with Candida [36], in the assay with Candida [37] and in the assay on Candida [38] was Active. The MIC80 was 0.125 µg/mL (≈ 0.114 µM) in the assay on Candida albicans [18] and 0.0156 µg/mL (≈ 0.0143 µM) in the assay on Candida albicans [19].
